For assay [1], the target named is T1, panel of 48 purified DUBs (Homo sapiens, UniProt Q9H3M9).
T1 construct: purchased Ubiquigent (DUBprofiler service)
The assay is described as follows: DUB selectivity profiling (DUBprofiler, ubiquitin–rhodamine(110)–glycine). The class given is biochemical. As to conditions: DUB Ataxin3L; screening concentration 5 μM; 5 µM. How it is done:
(§1) Biochemical selectivity profiling (DUBprofiler) was performed by Ubiquigent with a panel of 48 purified DUBs and ubiquitin–rhodamine(110)–glycine as a fluorescent substrate.

Assay [2] concerns the target T2, panel of 48 purified DUBs (Homo sapiens, UniProt Q6R6M4).
T2 construct: purchased Ubiquigent (DUBprofiler service)
The description is as above. The class given is biochemical. As to conditions: DUB USP17; screening concentration 5 μM; 5 µM. How it is done: as §1

Assay [3] addresses T3, panel of 48 purified DUBs (Homo sapiens, UniProt Q8TAC2).
T3 construct: purchased Ubiquigent (DUBprofiler service)
Described as above. The assay is classed as biochemical. As to conditions: DUB JOSD2; screening concentration 5 μM; 5 µM. How it is done: as §1

Assay [4] has as its target T4, panel of 48 purified DUBs (Homo sapiens, UniProt Q96G74).
T4 construct: purchased Ubiquigent (DUBprofiler service)
The description is as above. The assay is classed as biochemical. As to conditions: DUB OTUD5(p177S); screening concentration 5 μM; 5 µM. How it is done:
as §1

In assay [5] the target is T5, panel of 48 purified DUBs (Homo sapiens, UniProt Q9UPU5).
T5 construct: purchased Ubiquigent (DUBprofiler service)
Described as above. The class given is biochemical. As to conditions: DUB USP24; screening concentration 5 μM; 5 µM. How it is done:
as §1

In assay [6] the target is T6, panel of 48 purified DUBs (Homo sapiens, UniProt O94966).
T6 construct: purchased Ubiquigent (DUBprofiler service)
T6 sequence (O94966 whole entry): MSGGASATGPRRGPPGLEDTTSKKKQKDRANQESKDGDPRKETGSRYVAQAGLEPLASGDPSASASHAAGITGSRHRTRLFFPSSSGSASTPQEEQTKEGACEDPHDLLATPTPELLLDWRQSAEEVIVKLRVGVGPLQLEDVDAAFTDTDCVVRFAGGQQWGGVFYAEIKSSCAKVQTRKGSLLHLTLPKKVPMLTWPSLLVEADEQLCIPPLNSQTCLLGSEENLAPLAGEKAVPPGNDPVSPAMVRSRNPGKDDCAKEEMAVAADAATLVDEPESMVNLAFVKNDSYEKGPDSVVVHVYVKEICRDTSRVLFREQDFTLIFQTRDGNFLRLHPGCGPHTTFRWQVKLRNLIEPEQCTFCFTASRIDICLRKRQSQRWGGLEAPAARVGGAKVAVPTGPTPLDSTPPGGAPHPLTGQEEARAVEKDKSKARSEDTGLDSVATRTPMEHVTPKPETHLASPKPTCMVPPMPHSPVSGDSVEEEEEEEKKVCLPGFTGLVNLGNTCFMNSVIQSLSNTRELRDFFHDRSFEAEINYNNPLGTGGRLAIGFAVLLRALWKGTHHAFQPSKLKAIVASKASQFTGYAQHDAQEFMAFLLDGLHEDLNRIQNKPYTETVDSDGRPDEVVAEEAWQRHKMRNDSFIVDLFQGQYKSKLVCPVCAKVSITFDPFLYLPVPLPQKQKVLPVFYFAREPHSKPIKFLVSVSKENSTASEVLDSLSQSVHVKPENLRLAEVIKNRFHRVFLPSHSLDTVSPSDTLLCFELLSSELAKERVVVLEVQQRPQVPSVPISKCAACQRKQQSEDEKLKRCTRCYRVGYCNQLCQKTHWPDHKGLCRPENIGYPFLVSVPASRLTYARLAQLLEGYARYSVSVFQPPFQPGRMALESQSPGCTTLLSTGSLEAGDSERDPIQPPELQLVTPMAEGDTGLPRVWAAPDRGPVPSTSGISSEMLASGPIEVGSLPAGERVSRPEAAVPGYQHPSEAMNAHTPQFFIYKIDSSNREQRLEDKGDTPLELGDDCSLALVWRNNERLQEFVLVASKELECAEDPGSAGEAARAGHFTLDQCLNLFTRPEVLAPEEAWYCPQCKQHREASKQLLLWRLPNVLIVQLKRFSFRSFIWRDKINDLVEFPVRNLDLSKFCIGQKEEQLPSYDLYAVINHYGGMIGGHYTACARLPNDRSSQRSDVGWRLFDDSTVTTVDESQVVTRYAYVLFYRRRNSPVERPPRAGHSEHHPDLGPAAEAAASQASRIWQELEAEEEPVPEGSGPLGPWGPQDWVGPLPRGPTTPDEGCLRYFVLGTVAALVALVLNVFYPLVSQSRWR
The description is as above. As to conditions: DUB USP19; screening concentration 5 μM; 5 µM. The class given is biochemical. How it is done: as §1

The target in assay [7] is T7, panel of 48 purified DUBs (Homo sapiens, UniProt O75317).
T7 construct: purchased Ubiquigent (DUBprofiler service)
T7 sequence (O75317 whole entry): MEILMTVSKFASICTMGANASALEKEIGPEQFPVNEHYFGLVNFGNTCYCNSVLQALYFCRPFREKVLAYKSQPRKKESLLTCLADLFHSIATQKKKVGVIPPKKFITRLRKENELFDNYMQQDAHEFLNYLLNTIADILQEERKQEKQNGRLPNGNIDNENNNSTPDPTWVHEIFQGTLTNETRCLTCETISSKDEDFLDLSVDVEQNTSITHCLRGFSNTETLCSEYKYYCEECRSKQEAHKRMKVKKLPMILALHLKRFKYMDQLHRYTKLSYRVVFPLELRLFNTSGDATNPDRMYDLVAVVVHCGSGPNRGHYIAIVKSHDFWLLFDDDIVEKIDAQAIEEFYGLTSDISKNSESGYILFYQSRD
The description is as above. The assay is classed as biochemical. As to conditions: DUB USP12/UAF1/WDR20; screening concentration 5 μM. How it is done: as §1

For assay [8], the target named is T8, panel of 48 purified DUBs (Homo sapiens, UniProt Q13107).
T8 construct: purchased Ubiquigent (DUBprofiler service)
The assay is described as above. The assay is classed as biochemical. As to conditions: DUB USP4; screening concentration 5 μM. How it is done: as §1

For assay [9], the target named is T9, panel of 48 purified DUBs (Homo sapiens, UniProt O94782).
T9 construct: purchased Ubiquigent (DUBprofiler service)
T9 sequence (O94782 whole entry): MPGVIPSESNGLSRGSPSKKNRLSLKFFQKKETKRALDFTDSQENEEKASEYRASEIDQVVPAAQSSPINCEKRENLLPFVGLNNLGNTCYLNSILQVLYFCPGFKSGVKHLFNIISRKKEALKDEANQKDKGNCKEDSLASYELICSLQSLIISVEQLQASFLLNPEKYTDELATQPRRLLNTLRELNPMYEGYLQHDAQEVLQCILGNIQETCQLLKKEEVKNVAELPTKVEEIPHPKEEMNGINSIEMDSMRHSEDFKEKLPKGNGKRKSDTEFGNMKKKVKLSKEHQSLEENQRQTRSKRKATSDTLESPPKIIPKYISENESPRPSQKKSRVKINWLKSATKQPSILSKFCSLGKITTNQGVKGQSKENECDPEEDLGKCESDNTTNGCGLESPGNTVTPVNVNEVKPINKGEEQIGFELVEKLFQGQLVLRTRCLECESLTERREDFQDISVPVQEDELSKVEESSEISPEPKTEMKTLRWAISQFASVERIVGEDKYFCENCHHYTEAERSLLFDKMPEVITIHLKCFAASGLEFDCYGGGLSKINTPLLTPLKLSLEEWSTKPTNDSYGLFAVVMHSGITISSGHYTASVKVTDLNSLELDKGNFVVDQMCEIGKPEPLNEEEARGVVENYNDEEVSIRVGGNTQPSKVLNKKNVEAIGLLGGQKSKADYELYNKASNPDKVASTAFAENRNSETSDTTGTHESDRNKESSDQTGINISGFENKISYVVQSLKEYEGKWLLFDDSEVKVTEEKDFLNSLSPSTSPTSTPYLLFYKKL
Described as above. As to conditions: DUB USP1/UAF1; screening concentration 5 μM; 5 µM. The class given is biochemical. How it is done:
as §1

For assay [10], the target named is T10, panel of 48 purified DUBs (Homo sapiens, UniProt P54252).
T10 construct: purchased Ubiquigent (DUBprofiler service)
T10 sequence (P54252 whole entry): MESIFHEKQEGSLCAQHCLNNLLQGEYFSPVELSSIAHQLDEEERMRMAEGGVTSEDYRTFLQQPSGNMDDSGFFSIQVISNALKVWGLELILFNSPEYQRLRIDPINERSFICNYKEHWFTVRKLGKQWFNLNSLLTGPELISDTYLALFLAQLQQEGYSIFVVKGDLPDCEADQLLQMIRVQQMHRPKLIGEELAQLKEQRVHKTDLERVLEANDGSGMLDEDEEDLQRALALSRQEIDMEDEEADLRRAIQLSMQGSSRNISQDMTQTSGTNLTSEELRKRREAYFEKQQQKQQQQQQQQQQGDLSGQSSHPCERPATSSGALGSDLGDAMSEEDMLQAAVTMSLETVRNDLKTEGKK
Described as above. As to conditions: DUB Ataxin3; screening concentration 5 μM; 5 µM. The class given is biochemical. How it is done:
as §1

In another assay the target is BRISC BRCC36 R167A+L169A (Homo sapiens, UniProt P46736+Q15018+Q9NXR7, L169A/R167A). The experiment in a line: BRISC mutant IQF assay: BRCC36 R167A+L169A. The class given is biochemical. As to conditions: read-out: Normalised V0. From the text:
Supplement 41594_2025_1517_MOESM5_ESM.xlsx, sheet "Fig. 4c" | column: Normalised V0

The target of another assay is BRISC BRCC36 L169A (Homo sapiens, UniProt P46736+Q15018+Q9NXR7, L169A). The assay is described as follows: BRISC mutant IQF assay: BRCC36 L169A. The assay is classed as biochemical. How it is done:
(§2) IQF assays were performed in DUB reaction buffer containing 50 mM HEPES–NaOH pH 7.0, 100 mM NaCl, 0.1 mg ml^−1 BSA, 1 mM DTT and 0.03% v/v Brij-35. […] The final concentration of BRISC WT, all BRISC mutants, HsBRISCΔLoop, MmBRISC and DrBRISCΔNΔC was 1 nM. Other enzymes were tested at the following concentrations: 5 nM ARISC (FL), 10 nM CfBRISCΔNΔC, 250 nM AMSH* (ref. [43]), 500 nM USP2 and 1 μM trypsin (Sigma, 9002-07-7). For Michaelis–Menten experiments, 1 nM BRISC with 0–1 μM IQF K63-linked diubiquitin substrate was used. Michaelis–Menten analyses and Lineweaver–Burk plots were calculated using GraphPad Prism (version 9.0).
(§3) To assess enzymatic activity, BRISC complexes were diluted to concentrations between 1 nM and 50 nM. […] Then, 20-μl enzyme reactions were carried out in 384-well black flat-bottom low-flange plates (Corning, 35373). DUB activity was measured using IQF K63-linked diubiquitin (LifeSensors, DU6303) at 50 nM. Cleaved diubiquitin was monitored by measuring fluorescence intensity (excitation, 544 nm; emission, 575 nm; dichroic mirror, 560 nm). Fluorescence intensity was measured every minute for 30 min at 30 °C. Fluorescence intensity units were plotted against time to generate a linear reaction progress curve, where the initial velocity (V0) corresponds to the gradient of the curve (typically achieved within 15 min). IC50 values were calculated using the GraphPad Prism (version 9.0) built-in dose–response equation for inhibitor concentration versus response (variable slope).

Another assay concerns DrBRISCΔNΔC. The assay is described as follows: DrBRISCΔNΔC IQF DUB activity assay. The assay is classed as biochemical, zebrafish (Danio rerio). How it is done:
as §2, §3

A further assay addresses BRISC BRCC36 R167A (Homo sapiens, UniProt P46736+Q15018+Q9NXR7, R167A). The assay is described as follows: BRISC mutant IQF assay: BRCC36 R167A. The class given is biochemical. How it is done:
as §2, §3

The mark [11] stands for this setting: FX-171-C 0.035 μM, read-out: Normalised V0.
Setting [12] is: FX-171-C 3.1 μM, read-out: Normalised V0.
The mark [13] stands for this setting: FX-171-C 100 μM, read-out: Normalised V0.

pIC50: −log10 of the molar value. Values joined by “and” are separate entries in the source; they are usually repeats but may differ in a detail not shown here. Equal values may be shown once.

T2 sequence (Q6R6M4 whole entry): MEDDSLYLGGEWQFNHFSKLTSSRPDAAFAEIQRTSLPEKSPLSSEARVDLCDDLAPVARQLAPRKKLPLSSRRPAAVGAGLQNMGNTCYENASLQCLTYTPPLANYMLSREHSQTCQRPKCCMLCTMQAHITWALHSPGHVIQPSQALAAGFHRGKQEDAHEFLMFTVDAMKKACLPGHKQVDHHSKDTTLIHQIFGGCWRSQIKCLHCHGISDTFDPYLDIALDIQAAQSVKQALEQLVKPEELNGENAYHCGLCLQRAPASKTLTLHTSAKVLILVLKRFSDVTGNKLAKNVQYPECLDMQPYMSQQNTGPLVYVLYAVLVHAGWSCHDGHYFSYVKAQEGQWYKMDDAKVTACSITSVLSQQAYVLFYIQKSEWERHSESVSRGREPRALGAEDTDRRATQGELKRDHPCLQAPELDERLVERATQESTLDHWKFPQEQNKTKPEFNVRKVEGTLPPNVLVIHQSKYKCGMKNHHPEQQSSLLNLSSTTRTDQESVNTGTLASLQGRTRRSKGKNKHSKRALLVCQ
T4 sequence (Q96G74 whole entry): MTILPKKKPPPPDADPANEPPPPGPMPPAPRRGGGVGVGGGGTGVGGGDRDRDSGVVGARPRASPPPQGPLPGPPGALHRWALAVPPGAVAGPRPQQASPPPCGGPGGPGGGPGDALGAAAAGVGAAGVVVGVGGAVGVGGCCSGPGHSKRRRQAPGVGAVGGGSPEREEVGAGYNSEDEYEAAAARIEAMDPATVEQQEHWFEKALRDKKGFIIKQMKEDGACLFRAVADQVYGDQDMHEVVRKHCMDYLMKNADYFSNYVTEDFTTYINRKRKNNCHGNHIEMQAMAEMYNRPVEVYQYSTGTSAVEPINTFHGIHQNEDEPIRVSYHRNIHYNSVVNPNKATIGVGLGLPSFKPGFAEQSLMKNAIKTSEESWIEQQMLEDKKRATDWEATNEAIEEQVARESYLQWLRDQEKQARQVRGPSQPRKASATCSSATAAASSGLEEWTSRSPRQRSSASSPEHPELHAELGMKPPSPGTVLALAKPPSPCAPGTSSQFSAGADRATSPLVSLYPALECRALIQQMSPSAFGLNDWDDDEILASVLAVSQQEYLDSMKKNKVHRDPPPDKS
T1 sequence (Q9H3M9 whole entry): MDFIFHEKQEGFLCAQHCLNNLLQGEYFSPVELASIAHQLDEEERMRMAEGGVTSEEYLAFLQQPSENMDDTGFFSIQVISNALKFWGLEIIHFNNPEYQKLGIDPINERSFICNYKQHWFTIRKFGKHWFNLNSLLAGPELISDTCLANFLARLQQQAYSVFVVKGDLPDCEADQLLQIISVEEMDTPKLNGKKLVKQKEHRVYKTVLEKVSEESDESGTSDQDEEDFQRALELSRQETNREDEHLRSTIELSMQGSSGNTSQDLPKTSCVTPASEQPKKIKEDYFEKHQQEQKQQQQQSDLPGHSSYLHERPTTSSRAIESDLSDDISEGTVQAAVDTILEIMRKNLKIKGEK
T3 sequence (Q8TAC2 whole entry): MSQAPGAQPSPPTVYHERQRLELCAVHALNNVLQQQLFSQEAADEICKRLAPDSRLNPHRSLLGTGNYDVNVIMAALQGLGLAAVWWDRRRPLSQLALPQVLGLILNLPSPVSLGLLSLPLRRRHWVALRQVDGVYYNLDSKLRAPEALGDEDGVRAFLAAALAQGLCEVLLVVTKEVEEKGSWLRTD

For `O=C(NC1CCNCC1)c1nn(C(=O)c2c(Cl)cccc2Cl)cc1NC(=O)c1c(Cl)cccc1Cl` [JMS-175-2], the “Activity (% control)” value in assay [1] is 98 % control and 95 % control; in assay [2] it was 89 % control and 83 % control; in assay [3], 101 % control and 102 % control; in assay [4] it was 96 % control and 99 % control; in assay [5], 98 % control and 99 % control; in [6], 100 % control and 99 % control. For the same compound, the “Activity (% control)” value in assay [7] was 96 % control; in [8], 101 % control; in assay [9], 81 % control and 82 % control; in [10], 87 % control and 85 % control.

For `O=C(NC1C2CNCC21)c1nn(C(=O)c2c(Cl)cccc2Cl)cc1NC(=O)c1c(Cl)cccc1Cl` (stereo not drawn) [FX-171-C], the remaining activity at 0.35 µM came out at 98.6% on BRISC BRCC36 R167A+L169A (FX-171-C 0.35 μM) and 78.4% at BRISC BRCC36 R167A (FX-171-C 0.35 μM, read-out: Normalised V0). Besides, the remaining activity at 25 µM on BRISC BRCC36 R167A+L169A (FX-171-C 25 μM) worked out at 85.6%. The pIC50 (in general, the IC50 on a negative log10 scale, so that one unit is a factor of ten) was 4.48 against BRISC BRCC36 L169A and 5.85 on BRISC BRCC36 R167A. For the same compound, on BRISC BRCC36 L169A, the “reduction of inhibition over wild-type complex” value is over 100 fold. Moreover, the remaining activity at 0.035 µM is 94.7% at BRISC BRCC36 L169A (setting [11]) and 98.5% at BRISC BRCC36 R167A (setting [11]). The remaining activity at 3.1 µM on BRISC BRCC36 L169A (setting [12]) was found to be 98.4%; at BRISC BRCC36 R167A (setting [12]), 25.5%. Moreover, the remaining activity at 50 µM at BRISC BRCC36 L169A (FX-171-C 50 μM, read-out: Normalised V0) amounted to 40.6%. The remaining activity at 100 µM is 22.1% on BRISC BRCC36 L169A (setting [13]) and 4.9% at BRISC BRCC36 R167A (setting [13]). Further, the remaining activity at 200 µM on BRISC BRCC36 L169A (FX-171-C 200 μM, read-out: Normalised V0) stood at 10.5%. In addition, the “Normalised V0” value is 0.983 and 1.045 and 1.007 and 1.076 and 0.9046 and 1 in the assay on DrBRISCΔNΔC (FX-171-C 0.013 μM); 0.9073 and 0.9513 and 0.9154 in the assay on DrBRISCΔNΔC (FX-171-C 0.02 μM); 0.972 and 1.086 and 0.9939 in the assay on DrBRISCΔNΔC (FX-171-C 0.0399999 μM); 1 and 1.042 and 0.951 in the assay on DrBRISCΔNΔC (FX-171-C 0.0599997 μM); 1.257 and 1.072 and 1.014 in the assay on DrBRISCΔNΔC (FX-171-C 0.0799994 μM); 0.9667 and 1.1184 and 0.9769 with DrBRISCΔNΔC (FX-171-C 0.119998 μM). The “Normalised V0” value with DrBRISCΔNΔC (FX-171-C 0.199996 μM) is 1.0445 and 1.023 and 0.9962; with DrBRISCΔNΔC (FX-171-C 0.499975 μM), 0.9714 and 1.052 and 0.9507; in the assay with DrBRISCΔNΔC (FX-171-C 0.799937 μM), 1.009 and 0.9333 and 0.8977; in the assay with DrBRISCΔNΔC (FX-171-C 1.25984 μM) it was 0.9862 and 1.093 and 0.9451; in the assay with DrBRISCΔNΔC (FX-171-C 1.9996 μM), 0.9182 and 0.9951 and 0.8213; in the assay on DrBRISCΔNΔC (FX-171-C 3.159 μM), 1.042 and 0.9998 and 0.8593. The “Normalised V0” value with DrBRISCΔNΔC (FX-171-C 5.19739 μM) is 0.6448 and 0.9953 and 0.847; in the assay on DrBRISCΔNΔC (FX-171-C 7.99364 μM), 0.9454 and 0.9127 and 0.9517; in the assay with DrBRISCΔNΔC (FX-171-C 12.7839 μM), 0.9358 and 1.024 and 0.8831; in the assay with DrBRISCΔNΔC (FX-171-C 19.96 μM), 0.6505 and 0.8985 and 0.8711; in the assay on DrBRISCΔNΔC (FX-171-C 31.4999 μM), 0.752 and 0.7818 and 0.7739; in the assay with DrBRISCΔNΔC (FX-171-C 50.147 μM) it was 0.6953 and 0.6278 and 0.7138. Further, the “Normalised V0” value in the assay on DrBRISCΔNΔC (FX-171-C 79.7601 μM) is 0.6671 and 0.5066 and 0.3963; with DrBRISCΔNΔC (FX-171-C 125.99 μM), 0.4739 and 0.3651 and 0.4262; in the assay on DrBRISCΔNΔC (FX-171-C 199.922 μM), 0.313 and 0.2853 and 0.3043. Also, on BRISC BRCC36 R167A, the “inhibitor sensitivity vs BRISC WT” value was “remained inhibitor sensitive”. Further, the remaining activity at 6.25 µM at BRISC BRCC36 R167A (FX-171-C 6.25 μM, read-out: Normalised V0) turned out to be 20.8%. In addition, the remaining activity at 12.5 µM on BRISC BRCC36 R167A (FX-171-C 12.5 μM, read-out: Normalised V0) was found to be 15%.

The values are drawn from paper PMC7617869, “Molecular glues that inhibit deubiquitylase activity and inflammatory signaling” (Nature Structural & Molecular Biology, 2025).
